Data: patent US20240059695A1, “SUBSTITUTED IMIDAZO[1,5-b]PYRIDAZINE COMPOUNDS AS KINASE INHIBITORS AND USE THEREOF” (IMPACT THERAPEUTICS (SHANGHAI), INC, priority 2020, published 2024)

Experiments:
[1] = test system: human colon cancer LoVo cell; test: MTT proliferation assay, LoVo; format: cell-based; conditions: Homo sapiens, LoVo, 96 h, MTT, 4 days; read-out: IC50 (nM), proliferation of LoVo cell
Description: (§1) The cells were seeded into 96-well cell culture plate with a density of 2000/4000 cells per well and incubated overnight in a 5% CO2 incubator at 37° C. […] 5 μL diluent of each concentration was added to 120 μL of medium (25 times diluted) and mixed by shaking. The overnight cell plates were taken and the culture medium was removed, 195 μL of fresh medium was added to each well, and 5 μL of diluted medium containing the corresponding concentration of the test compound was added respectively (the final concentration of DMSO is 1%), and the culture plate was then placed in a 5% CO2 incubator at 37° C. for 4 days. After removing the original solution, 100 SEL of fresh serum-free DMEM medium containing MTT (0.5 mg/mL) was added to each well, the culture was continued. […] Cell viability (%)=(ODcompound−ODbackground)/ODDMSO−ODbackground)×100. GraphPad Prism 6.0 was used to analyze the data. The inhibitory activity of compounds on cell proliferation was plotted based on cell viability and the logarithm of compound concentration. The IC5.0 value was fitted by a sigmoidal dose response curve equation Y=100/(1+10^(LogC-LogIC50)), wherein C was the concentration of compound.

[2] = test system: human lung cancer NCI-H460 cell; test: MTT proliferation assay, NCI-H460; format: cell-based; conditions: NCI-H460, 96 h, MTT, 4 days, read-out: IC50 (nM), proliferation of NCI-H460 cell
Description: The cells were digested by trypsinase and centrifuged at 800 rpm for 5 minutes, the supernatant was discarded, and the residual was resuspended with fresh medium […]) and counted.
as §1, with “μL” for “SEL”, “(%)=(ODcompound−ODbackground)/(ODDMSO−ODbackground)×100.” for “(%)=(ODcompound−ODbackground)/ODDMSO−ODbackground)×100.”, “IC50” for “IC5.0”, “[…],” for “Y=100/(1+10^(LogC-LogIC50)),”

ATR/ATRIP enzyme = biological target: T1, ATR/ATRIP enzyme (Homo sapiens, UniProt Q13535); test: ATR enzyme activity experiment (HTRF); format: biochemical; conditions: p53 substrate, 30 min room temperature, read-out: IC50 (nM), inhibitory effect on ATR kinase activity
T1 construct: purchased Eurofins 14-953
T1 sequence (Q13535 whole entry): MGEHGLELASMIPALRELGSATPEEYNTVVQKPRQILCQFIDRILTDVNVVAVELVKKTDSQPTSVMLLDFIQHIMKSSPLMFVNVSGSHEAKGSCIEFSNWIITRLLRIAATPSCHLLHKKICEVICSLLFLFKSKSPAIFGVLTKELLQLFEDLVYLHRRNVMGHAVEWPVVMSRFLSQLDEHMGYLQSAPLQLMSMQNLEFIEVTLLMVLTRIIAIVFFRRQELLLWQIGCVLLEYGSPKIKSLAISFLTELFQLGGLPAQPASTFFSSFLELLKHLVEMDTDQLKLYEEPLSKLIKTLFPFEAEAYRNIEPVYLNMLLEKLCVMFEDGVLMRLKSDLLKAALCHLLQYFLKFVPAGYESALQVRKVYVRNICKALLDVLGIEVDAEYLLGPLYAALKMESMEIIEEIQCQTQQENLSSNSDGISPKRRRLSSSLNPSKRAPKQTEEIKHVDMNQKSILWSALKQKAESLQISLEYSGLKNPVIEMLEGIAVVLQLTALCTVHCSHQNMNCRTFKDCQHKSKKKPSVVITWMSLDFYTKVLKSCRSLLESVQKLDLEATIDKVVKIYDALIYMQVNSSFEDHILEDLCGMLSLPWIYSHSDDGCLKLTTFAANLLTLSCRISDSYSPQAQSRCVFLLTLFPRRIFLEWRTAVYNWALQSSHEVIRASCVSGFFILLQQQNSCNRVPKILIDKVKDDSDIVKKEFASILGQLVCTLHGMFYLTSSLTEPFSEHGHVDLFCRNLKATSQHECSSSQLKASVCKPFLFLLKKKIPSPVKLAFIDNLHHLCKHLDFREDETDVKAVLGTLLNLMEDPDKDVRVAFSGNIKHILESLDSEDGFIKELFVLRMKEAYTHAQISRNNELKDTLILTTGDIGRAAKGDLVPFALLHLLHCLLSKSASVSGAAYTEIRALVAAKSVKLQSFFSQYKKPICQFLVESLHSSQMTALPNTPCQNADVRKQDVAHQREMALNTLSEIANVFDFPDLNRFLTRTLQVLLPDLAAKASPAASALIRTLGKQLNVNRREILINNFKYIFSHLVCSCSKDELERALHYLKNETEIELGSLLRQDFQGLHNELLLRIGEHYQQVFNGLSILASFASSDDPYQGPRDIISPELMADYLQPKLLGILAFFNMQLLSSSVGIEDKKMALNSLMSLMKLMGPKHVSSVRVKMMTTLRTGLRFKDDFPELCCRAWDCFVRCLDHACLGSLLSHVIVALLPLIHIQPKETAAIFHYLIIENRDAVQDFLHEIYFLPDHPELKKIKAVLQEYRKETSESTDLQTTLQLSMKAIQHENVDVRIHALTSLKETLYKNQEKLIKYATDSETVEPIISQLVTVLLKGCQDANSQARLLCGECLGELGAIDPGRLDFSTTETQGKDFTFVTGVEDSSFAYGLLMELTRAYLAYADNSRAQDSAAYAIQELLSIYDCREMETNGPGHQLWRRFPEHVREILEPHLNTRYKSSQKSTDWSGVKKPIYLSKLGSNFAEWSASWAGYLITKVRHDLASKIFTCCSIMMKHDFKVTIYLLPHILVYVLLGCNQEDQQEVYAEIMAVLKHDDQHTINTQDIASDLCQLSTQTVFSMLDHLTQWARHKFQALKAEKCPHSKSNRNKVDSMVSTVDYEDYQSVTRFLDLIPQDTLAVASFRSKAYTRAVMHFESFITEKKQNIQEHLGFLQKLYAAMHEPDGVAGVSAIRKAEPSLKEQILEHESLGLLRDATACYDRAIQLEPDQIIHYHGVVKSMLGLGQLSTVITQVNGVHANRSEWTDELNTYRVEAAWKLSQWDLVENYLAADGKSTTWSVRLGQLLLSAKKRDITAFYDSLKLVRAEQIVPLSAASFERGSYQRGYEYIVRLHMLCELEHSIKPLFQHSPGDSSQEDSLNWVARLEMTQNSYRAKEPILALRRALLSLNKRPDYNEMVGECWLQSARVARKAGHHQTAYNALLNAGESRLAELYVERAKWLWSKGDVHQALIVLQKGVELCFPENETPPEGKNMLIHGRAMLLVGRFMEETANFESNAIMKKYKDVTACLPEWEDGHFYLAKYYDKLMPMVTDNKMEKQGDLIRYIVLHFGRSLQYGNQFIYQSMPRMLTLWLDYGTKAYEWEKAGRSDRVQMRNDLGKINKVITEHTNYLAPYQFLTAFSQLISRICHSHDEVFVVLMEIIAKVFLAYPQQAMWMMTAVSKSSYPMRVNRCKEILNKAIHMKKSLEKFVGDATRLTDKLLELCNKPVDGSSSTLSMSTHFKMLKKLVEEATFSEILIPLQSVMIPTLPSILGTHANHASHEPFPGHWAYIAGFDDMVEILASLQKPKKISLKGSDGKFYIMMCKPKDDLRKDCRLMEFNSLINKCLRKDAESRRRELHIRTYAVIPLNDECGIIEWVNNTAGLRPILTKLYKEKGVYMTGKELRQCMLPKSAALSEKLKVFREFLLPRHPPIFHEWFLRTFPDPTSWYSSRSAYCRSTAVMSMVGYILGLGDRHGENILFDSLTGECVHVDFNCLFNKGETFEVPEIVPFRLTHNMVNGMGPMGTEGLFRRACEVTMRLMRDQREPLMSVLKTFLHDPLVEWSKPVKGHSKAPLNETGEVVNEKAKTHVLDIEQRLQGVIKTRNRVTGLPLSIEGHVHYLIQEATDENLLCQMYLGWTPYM
T1 sequence (Q8WXE1 whole entry partner): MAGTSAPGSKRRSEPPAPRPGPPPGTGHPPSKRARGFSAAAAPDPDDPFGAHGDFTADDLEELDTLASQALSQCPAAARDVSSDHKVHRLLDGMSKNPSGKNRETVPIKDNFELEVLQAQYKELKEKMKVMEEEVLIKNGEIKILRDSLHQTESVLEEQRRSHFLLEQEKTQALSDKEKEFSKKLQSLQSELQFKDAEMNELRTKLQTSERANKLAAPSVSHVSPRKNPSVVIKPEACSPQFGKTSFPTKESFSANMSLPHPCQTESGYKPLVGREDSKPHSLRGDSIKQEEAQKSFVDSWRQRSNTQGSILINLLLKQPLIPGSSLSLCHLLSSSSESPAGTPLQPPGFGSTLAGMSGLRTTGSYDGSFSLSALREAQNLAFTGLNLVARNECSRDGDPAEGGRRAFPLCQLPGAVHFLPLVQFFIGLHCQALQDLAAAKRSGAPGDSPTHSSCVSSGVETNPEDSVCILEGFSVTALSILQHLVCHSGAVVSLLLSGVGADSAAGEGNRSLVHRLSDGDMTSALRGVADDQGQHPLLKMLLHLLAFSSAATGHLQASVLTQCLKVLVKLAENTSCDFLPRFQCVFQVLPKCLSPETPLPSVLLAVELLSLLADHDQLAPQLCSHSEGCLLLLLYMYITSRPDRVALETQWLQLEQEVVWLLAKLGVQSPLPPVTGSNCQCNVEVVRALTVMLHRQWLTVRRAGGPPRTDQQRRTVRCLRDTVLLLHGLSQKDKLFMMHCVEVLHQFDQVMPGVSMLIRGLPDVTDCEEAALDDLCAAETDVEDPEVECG
Description: The mixture was centrifuged at 1000 rpm for 1 minute, and reacted at room temperature protected from light for 30 minutes. Then 5 μL of EDTA stop solution (250 mM) was added to stop the reaction.

[3] = Pharmacokinetics following single oral administration to mice; format: in vivo; conditions: mouse, CD-1 (ICR) mice, gavage 10 mg/kg, 0.5% methylcellulose/water suspension, plasma
Description: The compound of the present invention was formulated into a 0.5% methylcellulose/water uniform suspension, and was administered to CD-1 (ICR) mice by gavage at 10 mg/kg. Plasma samples were collected at 8 time points of 0.250, 0.500, 1.00, 2.00, 4.00, 6.00, 8.00 and 24.0 hours post-dose. Concentrations of the compound were determined by LC-MS/MS method.

C=C(C)c1nc(-c2ccn[nH]2)n2nc(N3CCOC[C@H]3C)cc(-c3ccnn3C)c12 [Example 25, (R)-3-Methyl-4-(4-(1-Methyl-1H-pyrazol-5-yl)-5-(prop-1-en-2-yl)-7-(1H-pyrazol-5-yl)imidazo[1,5-b]pyridazin-2-yl)morpholine]
IC50 [1]: 10.7 nM
IC50 [2]: 8.64 nM
IC50 (ATR/ATRIP enzyme): 1 nM
AUC(0-inf) [3]: 70200 ng·h/mL
AUC(0-t) [3]: 70000 ng·h/mL
Cmax [3]: 16900 ng/mL
half-life [3]: 2.56 h

Cc1ncccc1-c1cc(N2CCOC[C@H]2C)nn2c(-c3ccn[nH]3)nc(C)c12 [Example 4, (R)-3-methyl-4-(5-methyl-4-(2-methylpyridin-3-yl)-7-(1H-pyrazol-5-yl)imidazo[1,5-b]pyridazin-2-yl)morpholine]
IC50 [1]: 26.9 nM
IC50 [2]: 13 nM
IC50 (ATR/ATRIP enzyme): 3 nM
AUC(0-inf) [3]: 44000 ng·h/mL
AUC(0-t) [3]: 43400 ng·h/mL
Cmax [3]: 9010 ng/mL
half-life [3]: 3.2 h

C[C@@H]1COCCN1c1cc(-c2ccnn2C)c2c(Cl)nc(-c3ccn[nH]3)n2n1 [Example 21, (R)-4-(5-chloro-4-(1-methyl-1H-pyrazol-5-yl)-7-(1H-pyrazol-5-yl)imidazo[1,5-b]pyridazin-2-yl)-3-methylmorpholine]
IC50 [1]: 22.4 nM
IC50 [2]: 24.1 nM
IC50 (ATR/ATRIP enzyme): 6 nM
AUC(0-inf) [3]: 42900 ng·h/mL
AUC(0-t) [3]: 42800 ng·h/mL
Cmax [3]: 7340 ng/mL
half-life [3]: 2.65 h

Cc1nc(-c2ccn[nH]2)n2nc(N3CCOC[C@H]3C)cc(-c3cccnc3C(F)(F)F)c12 [Example 5, (R)-3-methyl-4-(5-methyl-7-(1H-pyrazol-5-yl)-4-(2-(trifluoromethyl)pyridin-3-yl)imidazo[1,5-b]pyridazin-2-yl)morpholine]
IC50 [1]: 25.5 nM
IC50 [2]: 17.8 nM
IC50 (ATR/ATRIP enzyme): 3 nM
AUC(0-inf) [3]: 31700 ng·h/mL
AUC(0-t) [3]: 30800 ng·h/mL
Cmax [3]: 8930 ng/mL
half-life [3]: 3.42 h

C=Cc1nc(-c2ccn[nH]2)n2nc(N3CCOC[C@H]3C)cc(-c3ccnn3C)c12 [Example 23, (R)-3-methyl-4-(4-(1-methyl-1H-pyrazol-5-yl)-7-(1H-pyrazol-5-yl)-5-vinylimidazo[1,5-b]pyridazin-2-yl)morpholine]
IC50 [1]: 39.1 nM
IC50 [2]: 32 nM
IC50 (ATR/ATRIP enzyme): 2 nM
AUC(0-inf) [3]: 24100 ng·h/mL
AUC(0-t) [3]: 22400 ng·h/mL
Cmax [3]: 6610 ng/mL
half-life [3]: 1.66 h
